Results taken from US4873245A, “Isolation and structural elucidation of cephalostatins 1-4” (Arizona Board of Regents, priority 1988, dated 1989).
Values after ≈ are worked out from the molar mass of the structure shown. Where two headings read alike, the source gives them in different places.

Assays:
[1] = tested on: P388 lymphocytic leukemia cell line; experiment: PS in vitro: growth inhibition of P388 lymphocytic leukemia cell line, standard N.C.I. protocol; format: cell-based, murine
Source text: Cephalostatin 1 was placed against the P388 lymphocytic leukemia cell line using standard National Cancer Institute ("N.C.I.") protocol with the following results:
Cephalostatin 2 was placed against the P388 lymphocytic leukemia cell line using standard National Cancer Institute ("N.C.I.") protocol with the following results:
Cephalostatin 3 was placed against the P388 lymphocytic leukemia cell line using standard National Cancer Institute ("N.C.I.") protocol with the following results:
Cephalostatin 4 was placed against the P388 lymphocytic leukemia cell line using standard National Cancer Institute ("N.C.I.") protocol with the following results: […]

[2] = tested on: murine P388 lymphocytic leukemia; experiment: U.S. National Cancer Institute's murine P388 lymphocytic leukemia (PS system), life extension of host; format: in vivo; settings: for activity against murine P388 lymphocytic leukemia (PS system), in words: mouse, in vivo

| Compound | ED50 (PS cell line) [1] | ED50 (PS cell line) ([1]; listed as cephalostatin 4) | Life Extension ([2]; 100 μg/Kg host body weight) [%] | activity against murine P388 lymphocytic leukemia (PS system), in words [2] | Life Extension ([2]; 40 μg/Kg host body weight) [%] |
| --- | --- | --- | --- | --- | --- |
| C[C@@H]1[C@]2(O[C@H]3C=C4[C@@H]5CC[C@H]6Cc7nc8c(nc7C[C@]6(C)[C@H]5C[C@@H](O)[C@]4(C)[C@]31O)C[C@@H]1CC[C@H]3[C@@]45O[C@@H]4C[C@@H]4[C@H](C)[C@@]6(OC[C@@]45C(=O)C[C@]3(O)[C@@]1(C)C8)OC(C)(C)C[C@H]6O)O[C@](C)(CO)C[C@H]2O [Cephalostatin 4] | 0.00055 µg/mL (≈ 0.583 nM) | 10^-7 to 10^-9 μg/ml | 25 | confirmed active level | – |
| C[C@@H]1[C@]2(O[C@H]3C=C4[C@@H]5CC[C@H]6Cc7nc8c(nc7C[C@]6(C)[C@H]5C[C@@H](O)[C@]4(C)[C@]31O)C[C@@H]1CC[C@H]3C4=CC[C@@H]5[C@H](C)[C@@]6(OC[C@]45C(=O)C[C@]3(O)[C@@]1(C)C8)OC(C)(C)[C@@H](C)[C@H]6O)O[C@](C)(CO)C[C@H]2O [Cephalostatin 3] | 10^-7 to 10^-9 μg/ml | – | – | confirmed active level | 30 |
| C[C@@H]1[C@]2(O[C@H]3C=C4[C@@H]5CC[C@H]6Cc7nc8c(nc7C[C@]6(C)[C@H]5C[C@@H](O)[C@]4(C)[C@]31O)C[C@@H]1CC[C@H]3C4=CC[C@@H]5[C@H](C)[C@@]6(OC[C@]45C(=O)C[C@]3(O)[C@@]1(C)C8)OC(C)(C)C[C@H]6O)O[C@](C)(CO)C[C@H]2O [Cephalostatin 2] | 10^-7 to 10^-9 μg/ml | – | – | confirmed active level | 35 |
| C[C@@H]1[C@]2(O[C@H]3C=C4[C@@H]5CC[C@H]6Cc7nc8c(nc7C[C@]6(C)[C@H]5C[C@@H](O)[C@]4(C)[C@]31O)C[C@@H]1CC[C@H]3C4=CC[C@@H]5[C@H](C)[C@@]6(OC[C@]45C(=O)C[C@@H]3[C@@]1(C)C8)OC(C)(C)C[C@H]6O)O[C@](C)(CO)C[C@H]2O [Cephalostatin 1] | 10^-7 to 10^-9 μg/ml | – | – | confirmed active level | 31 |
